What was measured:
[1] = tested on: primary mouse dermal fibroblasts; test: Dermal fibroblast proliferation in vitro, BrdU labeling assay; assay type: cell-based, C57BL/6 mouse; details: 24 hours; for BrdU/Vimentin Labeling Index (%): 50 nM peptide in 1% FBS medium, BrdU 2 hours
Procedure: Full-thickness skin tissue was obtained from the dorsum of C57BL/6 mouse. The subcutaneous tissue was carefully dissected from the skin and washed three times in sterile phosphate-buffered saline (PBS). The tissue was then cut into small pieces (1-2 mm^3). After being digested with 0.1% dispase at 4° C. overnight, the epidermal layers were removed, and the remaining dermal parts were further digested with 0.1% collagenase I at 37° C. for another 4 hours. The digested cells were then collected by centrifugation (400 g for 5 minutes) and resuspended in high-glucose DMEM supplemented with 10% FBS, 2 mM L-glutamine, and 1% penicillin-streptomycin antibiotic mixture. Cells were seeded onto tissue-culture plates (Falcon Labware; NJ, USA) at 1×10^3 cells/cm^2 and maintained at 37° C. with 5% CO2. After 24 hours, the medium was discarded to remove residual non-adherent cells, and cell culture was replenished with a fresh medium. For passage, near-confluent cells were harvested with 0.25% trypsin/EDTA.
After fixing with 4% paraformaldehyde, cells were exposed to cold methanol for 2 minutes, and then treated with 1 N HCl at room temperature for 1 hour before performing immunofluorescence staining.
BrdU-labeled DNA was detected by polyclonal anti-BrdU antibody and rhodamine-conjugated donkey anti-rabbit IgG. Nuclei were counterstained with Hoechst 33258 (blue).
Primary mouse dermal fibroblasts were isolated and cultured as described in the “Materials and Methods” section. The dermal fibroblast at passage 2 were seeded at gelatin-coated slide in a 6-well plate at a density of 2×10^5 cells per well and cultured in growth medium (DMEM 10% FBS) for 24 hours before being replaced by a basal growth medium with 1% FBS only (control group) or with 1% FBS plus an additional 50 nM of PEDF-derived peptide (i.e., 29-mer, 24-mer, 20-mer, 18-mer, Mo 29-mer, or Mo 20-mer) for 24 hours. For BrdU labeling assay, BrdU (final concentration, 10 μM) was added to the culture for 2 hours. The level of BrdU- and vimentin-double positive cells was expressed as the percentage of BrdU- and vimentin-double positive cells per total vimentin-positive cells (the BrdU/Vimentin Labeling Index), and the results were summarized in Table 2.

UVB-induced wrinkles = UVB-induced wrinkles in nude mice, appearance photographed; assay type: in vivo; details: 8-week UVB, then ointment plus microneedle twice a week for 2 weeks; FIG. 4
Excerpt: Six-week-old female nude mice (BALB/cAnN.Cg-Foxn1nu/CrlNarl) were irradiated with ultraviolet B (UVB) on the back 5 times a week for an eight-week period using a bank of five UVB lamps (model XL-1000B, Spectrolinker™ apparatus; emission peak: 312 nm), placed about 20 cm above the backs of the animals. During the UVB exposure, the mice were allowed to move freely within the cage. The irradiation intensity represented as the minimal erythe al dose (MED) was set at 1 MED during the first 2 weeks (60 mJ/cm^2), and was progressively elevated to 2 MED (120 mJ/cm^2) in the 3rd-4th week, to 3 MED (180 mJ/cm^2) in the 5th-6th week, and to 4 MED (240 mJ/cm^2) during the 7th-8th weeks of the experiment. After the 8-week UVB exposure, animals developed noticeable wrinkles and were subsequently randomly divided into the following 4 groups, with 3 mice in each group. In the UVB/vehicle, UVB/29-mer, UVB/20-mer, and UVB/18-mer groups, 350 μl of ointment (containing DMSO, 29-mer, 20-mer or 18-mer PEDF) was applied to the dorsal skin and then transdermal delivery was achieved by punching the ointment treated skin with the microneedle patch. Also, mice that were not subjected to UVB radiation were used as control (Normal). The ointment/microneedle treatment was given twice a week for 2 weeks. Mice were intraperitoneally given BrdU and euthanized at 16 hours after the last treatment. Skin sections were stained for vimentin and BrdU. The level of BrdU- and vimentin-double positive cells was expressed as the percentage of BrdU- and vimentin-double positive cells per total vimentin-positive cells (the BrdU/Vimentin Labeling Index).
Formation of wrinkles is closely related to repetitive exposure to UVB irradiation. […] In this working example, we investigated the anti-wrinkle effect of present PEDF peptides in nude (i.e, hairless) mice. Wrinkles were induced by an eight-week UVB irradiation according to the procedure set forth in Example 3.3 above. […]

type I collagen (COL1A1) = test: COL1A1 level in UVB-damaged mouse skin by immunoblot; assay type: in vivo, nude mice; details: 8-week UVB, then ointment plus microneedle for 2 weeks; untreated normal group set to 100%
Procedure: Skin tissues were homogenized in ice-cold lysis buffer containing 20 mM HEPES (pH 7.4), 150 mM NaCl, 1% SDS, 1 mM ethylenediamine tetraacetic acid (EDTA), 5 mM phenylmethanesulfonyl fluoride (PMSF), and 1 mM dithiothreitol (DTT), 1% Triton X-100, with freshly added protease inhibitor cocktail (Roche, Indianapolis, Ind.). Homogenates were then centrifuged at 12,000 g for 30 minutes at 4° C., and supernatants were then collected and stored at −70° C. Protein contents in lysates were determined using the Bradford assay. Whole cell lysates were prepared using the above lysis buffer. Aliquots of the lysates were then resolved on a SDS-PAGE and then electrotransferred to polyvinylidene difluoride (PVDF) membranes (Millipore, Bedford, Mass., USA) and processed for immunoblot analysis.
Antibodies used in the immunoblot study included anti-type I collagen 1A1 antibody (1:1000 dilution), anti-MMP-1 antibody (1:500 dilution) and anti-β-actin antibody (1:10000 dilution). Proteins of interest were detected using the appropriate IgG-HRP secondary antibody and ECL reagent (Amersham, Arlington Heights, Ill., USA). X-ray films were scanned on a Model GS-700 Imaging Densitometer (Bio-Rad Laboratories, Hercules, Calif.) and analyzed using Labworks 4.0 software. For quantification, blots from at least three independent experiments were used.
Six-week-old female nude mice (BALB/cAnN.Cg-Foxn1nu/CrlNarl) were irradiated with ultraviolet B (UVB) on the back 5 times a week for an eight-week period using a bank of five UVB lamps (model XL-1000B, Spectrolinker™ apparatus; emission peak: 312 nm), placed about 20 cm above the backs of the animals. During the UVB exposure, the mice were allowed to move freely within the cage. […] The level of BrdU- and vimentin-double positive cells was expressed as the percentage of BrdU- and vimentin-double positive cells per total vimentin-positive cells (the BrdU/Vimentin Labeling Index). […]

Substance | BrdU/Vimentin Labeling Index (%) [1] [%] | proliferation relative to control medium ([1]; 50 nM peptide) | wrinkle appearance after 2-week treatment (UVB-induced wrinkles) | COL1A1 Level (%) (type I collagen (COL1A1)) | effect on dermal fibroblast proliferation in vitro ([1]; 50 nM peptide)
SLGAEQRTESIIHRALYYDL [20-mer, synthetic peptide corresponding to residues 93-112 of human PEDF] | 10.4 ± 2.3 | about 5 fold | wrinkle lines were fewer and finer | 92.3 ± 9.1 | –
Ac-SLGAEQRTESIIHRALYYDLISSPDIHGT-NH2 [29-mer] | 9.6 ± 1.6 | about 5 fold | wrinkle lines were fewer and finer | 91.0 ± 5.0 | –
EQRTESIIHRALYYDLIS [18-mer] | 2.1 ± 0.61 | – | not capable of reducing the wrinkles | 45.0 ± 3.8 | failed to elicit such effect
